Data on 15 molecules can be found in patent EP0111455A2, “Unsaturated lactones” (CIBA-GEIGY AG, priority 1982, dated 1984).

For assay [1], the system named is isolierten, elektrisch gereizten, linken Vorhöfen des Meerschweinchens. The assay can be described thus: positive inotropic effect on isolated, electrically stimulated left atria (method after J.V. Levy). Format: cell-based, Meerschweinchen. The note with it: for Emax: Cavia porcellus, extent of positive inotropic effect in % of the maximal increase of contraction force by Isoproterenol, read-out: Ausmass der Wirkung (% von ISOmax); for EC50: concentration for half of the maximal positive inotropic effect, left atria, guinea pig, read-out: Wirksamkeit EC50; for IC25 / IC50: negative inotropic effect, same set-up; for IC25: read-out: Konzentration für Reduktion der Kontraktionskraft um 25 %; for IC50: read-out: Konzentration für Reduktion der Kontraktionskraft um 50 %; for Kontraktionskraft (Art der Wirkung): qualitative, exclusively a decrease of contraction force. From the text: (§1) Die Steigerung der myocardialen Kontraktilität, d.h. die positiv inotrope Wirkung, kann z.B. anhand von Versuchsanordnungen nachgewiesen werden, die sich auf die von J.V. Levy, Isolated Atrial Preparations in Methods in Pharmacology, Bd. 1, S. 77 bis 104 (Ed. A. Schwartz; Appleton-Century-Crofts, New York; 1971),beschriebene Methodik, stützen. So steigern die Verbindungen der Formel I und Salze von solchen Verbindungen mit salzbildenden Eigenschaften in Konzentrationen ab etwa 0,1 umol/L an isolierten, elektrisch gereizten, linken Vorhöfen des Meerschweinchens (in vitro-Versuchsanordnung) die maximale Kontraktionskraft (peak developed tension). Das Ausmass (efficacy) dieser positiv inotropen Wirkung ist dabei unterschiedlich, kann jedoch bis zu 90 % der mit Isoproterenol maximal erreichbaren Wirkung betragen. Ferner steigern sie in Konzentrationen ab etwa 0,3 µ mol/L an isolierten, spontan schlagenden, rechten Vorhöfen des Meerschweinchens die Kontraktionsfrequenz. Das Ausmass (efficacy) dieser positiv chronotropen Wirkung ist dabei unterschiedlich, kann jedoch bis zu 60% der mit Isoproterenol maximal erreichbaren Wirkung betragen.
In der folgenden Tabelle werden die Konzentrationen (in µmol/L) für Verbindungen der Formel I angegeben, die notwendig sind, um die Hälfte der maximalen positiv inotropen Wirkung zu erzielen (EC50). Das Ausmass der Wirkung wird in % der maximalen, mittels Isoproterenol in dieser Versuchsanordnung bewirkten Steigerung der Kontraktionskraft (ISOmax.) angegeben; diejenige von Isoproterenol beträgt +2.1 +0.1 g (x ± SK; N=30).
Im Gegensatz dazu weist z.B. der obgenannte 2-Cyan-6-methyl-4-(3-nitrophenyl)-1,4-dihydro-pyridin-3,5-dicarbonsäure-5-isopropylester-3-methylester in der gleichen Versuchsanordnung eine Reduktion der Kontraktionskraft um 25 % bei einer Konzentration von 1 µmol/L und um 50 % bei einer solchen von 8 µmol/L auf, während Nifedipin bei einer Konzentration von 0.1 µmol/L eine 25 %ige und von 0.4 µmo 1/1 eine 50 Zige Reduktion der myocardialen Kontraktionskraft bewirkt.

Assay [2] has as its system isolierten, spontan schlagenden, rechten Vorhöfen des Meerschweinchens. The assay can be described thus: positive chronotropic effect on isolated, spontaneously beating right atria. It is filed as cell-based, Meerschweinchen. The note with it: qualitative; exclusively a decrease of contraction frequency.
Source text: as §1

In a further assay the test system is narkotisierten Katze. The assay can be described thus: arterial blood pressure in the anaesthetised cat, intravenous. Format: in vivo. The settings on record: qualitative, i.v., doses from about 0,001 mg/kg. The protocol:
An der narkotisierten Katze führen die Verbindungen der Formel I und Salze von solchen Verbindungen mit salzbildenden Eigenschaften bei intravenöser Verabreichung in Dosen ab etwa 0,001 mg/kg zu einer Steigerung des arteriellen Blutdrucks.

Another assay concerns männliche Ratten. The assay can be described thus: central nervous system stimulation (behaviour) in male rats, i.p. It is filed as in vivo. The note with it: 50 mg/kg i.p. as solution in Polyäthylenglycol 400; during 1 hour, especially 30 minutes after administration. The method, then:
Die Verbindungen der Formel I sowie Salze von solchen Verbindungen mit salzbildenden Eigenschaften wirken ferner aktivierend, insbesondere stimulierend, auf das Zentralnervensystem. So bewirkt z.B. die i.p.-Verabreichung von 50 mg/kg 4-(2-Difluormethoxyphenyl)-2-methyl-5-oxo-1,4,5,7-tetrahydro-fuo[3,4-b]pyridin-3-carbonsäureäthylester als Lösung in Polyäthylenglycol 400 an männliche Ratten während 1 Stunde, insbesondere während 30 Minuten nach Verabreichung Schnuppern, Kau- und Putzaktivität, sporadische. Schüttelbewegungen von Kopf und Körper sowie Vorderpfoten-Klonus. Aufgrund dieser Eigenschaften erscheinen die Verbindungen der Formel I sowie Salze von solchen Verbindungen mit salzbildenden Eigenschaften für die Behandlung retardierter Depressionen verschiedenen Schweregrades, von psychischen, von fehlendem Antrieb und Initiative begleiteten Störungen sowie von hypokinetischen, geriatrischen Patienten geeignet.

The next assay relates to narkotisierten Hund. Kind of assay: haemodynamics and blood glucose in the anaesthetised dog, intravenous. Format: in vivo. The note with it: qualitative. The method, then: Im narkotisierten Hund (in vivo-Versuchsanordnung) bewirken die Verbindungen der Formel I und Salze von solchen Verbindungen mit salzbildenen Eigenschaften bei intravenöser Verabreichung in Dosen ab etwa 1 mg/kg ebenfalls eine Steigerung der myokardialen Kontraktilität (Zunahme der maximalen Druckanstiegsgeschwindigkeit dP/dt in der max Aorta) um etwa 40 bis etwa 60 %, sowie eine Steigerung des arteriellen Blutdrucks um etwa 10 bis etwa 30 %, ferner eine Abnahme der GlucoseKonzentration im Blut um etwa 10 bis etwa 30 %.

The structures appear in SMILES notation.

As usually defined, the EC50 is the midpoint of the concentration-response curve. Turning to `CCOC(=O)C1=C(C)NC2=C(C(=O)OC2)C1c1ccccc1OCCOC` (centres unmarked) [-COOC2H5; 2-(2-Methoxyäthoxy)-phenyl, 2 Methyl-4-[2-(2-methoxyäthoxy)-phenyl]-5-oxo-1,4,5,7-tetrahydro-furo[3,4-b]pyridin-3-carbonsäure-äthylester], in assay [1], the Emax came to 80% and the EC50 turned out to be 3800 nM.
`CCOC(=O)C1=C(C)NC2=C(C(=O)OC2)C1c1ccc(OC(F)F)cc1` (centres unmarked) [-COOC2H5; 4-Difluormethoxy-phenyl, 4-(4-Difluormethoxy-phenyl)-2-methyl-5-oxo-1,4,5,7-tetrahydro-furo[3,4-b]pyridin-3-carbonsäureäthylester]: the Emax in assay [1] came to 10%.
In the case of `CC1=C(C(=O)OC(C)C)C(c2ccccc2OC(F)F)C2=C(COC2=O)N1` (centres unmarked) [-COOCH(CH3)2; 2-Difluormethoxy-phenyl, 4-(2-Difluormethoxyphenyl)-2-methyl-5-oxo-1,4,5,7-tetra-hydro-furo[3,4-b]pyridin-3-carbonsäure-isopropylester], in assay [1], the Emax was 70% and the EC50 was 1200 nM.
For `COC(=O)C1=C(C#N)NC(C)=C(C(=O)OC(C)C)C1c1cccc([N+](=O)[O-])c1` (centres unmarked) [2-Cyan-6-methyl-4-(3-nitrophenyl)-1,4-dihydro-pyridin-3,5-dicarbonsäure-5-isopropylester-3-methylester, reference compound], the “Kontraktionsfrequenz (Art der Wirkung)” value in assay [2] is reported as “negativ chronotrope Wirkung”. Besides, the “arterieller Blutdruck (Art der Wirkung)” value in the assay on narkotisierten Katze was “Senkung des arteriellen Blutdrucks”. In assay [1], the IC25 was found to be 1000 nM, the IC50 was 8000 nM and the “Kontraktionskraft (Art der Wirkung)” value is recorded as “negativ inotrope Wirkung”.
In the case of `CCOC(=O)C1=C(C)NC2=C(C(=O)OC2)C1c1ccccc1OCCSC` (centres unmarked) [2-Methyl-4-[2-(2-methylthioäthoxy)-phenyl]-5-oxo-_ 1,4,5,7-tetrahydro-fnro[3,4-b]pyridin-3-carbonsäure-äthylester], in assay [1], the Emax amounted to 75% and the EC50 was 380 nM.
Taken in the same sequence, the figures for `CCOC(=O)C1=C(C)NC2=C(C(=O)OC2)C1c1ccccc1OC(F)(F)C(F)Cl` (centres unmarked) [4-[2-(2-Chlor-1,1,2-trifluor-äthoxy)-phenyl]-2-methyl-5-oxo-1,4,5,7-tetrahydro-furo-[3,4-b]pyridin-3-carbonsäureäthylester] were 75% and 1000 nM.
Taken in the same sequence, the figures for `CCOC(=O)C1=C(C)NC2=C(C(=O)OC2)C1c1cccc(OC(F)F)c1` (centres unmarked) [-COOC2H5; 3-Difluormethoxy-phenyl, 4-(3-Difluormethoxyphenyl)-2-methyl-5-oxo-1,4,5,7-tetrahydro-furo [3,4-b]pyridin-3-carbonsäure-äthylester] were 65% and 4800 nM.
Taken in the same sequence, the figures for `CCOC(=O)C1=C(C)NC2=C(C(=O)OC2)C1c1ccccc1SC(F)F` (centres unmarked) [-COOC2H5; 2-Difluormethyl-mercaptophenyl, 4-(2-Difluormethylmercaptophenyl)-2-methyl-5-oxo-1,4,5,7-tetrahydro-furo[3,4-b]pyridin-3-carbonsäure-äthylester] were 80% and 1000 nM.
Consider `CCOC(=O)C1=C(C)NC2=C(C(=O)OC2)C1c1cccc(OC(F)F)c1OC(F)F` (centres unmarked) [-COOC2H5; 2,3-Di-difluor-methoxyphenyl, 4-[2,3 Di-(difluormethoxy)-phenyl]-2-methyl-5-oxo-1,4,5,7-tetrahydro-furo[3,4-b]pyridin-3-carbonsäure-äthylester], for which, in assay [1], the Emax was 14%.
Consider `CCOC(=O)C1=C(C)NC2=C(C(=O)OC2)C1c1ccccc1OC(F)F` (centres unmarked) [-COOC2H5; 2-Difluormethoxy-phenyl, 4-(2-Difluormethoxy-phenyl)-2-methyl-5-oxo-1,4-5,7-tetrahydro-furo[3,4-b]pyridin-3-carbonsäureäthylester], for which, in assay [1], the Emax came to 65% and the EC50 is 700 nM. Moreover, in the assay on männliche Ratten, the “Wirkung auf das Zentralnervensystem (Verhalten)” value is on record as “Schnuppern, Kau- und Putzaktivität, sporadische. Schüttelbewegungen von Kopf und Körper sowie Vorderpfoten-Klonus”.
Turning to `CC1=C(C#N)C(c2ccccc2OC(F)F)C2=C(COC2=O)N1` (centres unmarked) [-CN; 2-Difluormethoxy-phenyl, 4-(2-Difluormethoxy-phenyl)-2-methyl-5-oxo-1,4,5,7-tetrahydro-furo[3,4-b]pyridin-3-carbonitril], in assay [1], the Emax was 68% and the EC50 is 63000 nM.
Regarding `COC(=O)C1=C(C)NC2=C(C(=O)OC2)C1c1ccccc1OC(F)F` (centres unmarked) [-COOCH3; 2-Difluormethoxy-phenyl, 4-(2-Difluormethoxyphenyl)-2-methyl-5-oxo-l,4,5,7-tetrahydro-furo[3,4-b]pyridin-3-carbonsäure-methylester], in assay [1], the Emax amounted to 70% and the EC50 was determined as 3700 nM.
On to `COCCOC(=O)C1=C(C)NC2=C(C(=O)OC2)C1c1ccccc1OC(F)F` (centres unmarked) [-COOC2H4OCH3; 2-Difluormethoxy-phenyl, 4-(2-Difluormethoxyphenyl)-2-methyl-5-oxo-1,4,5,7-tetrahydro-furo[3,4-b]pyridin-3-carbonsäure-(2-methoxyäthyl)-ester], for which, in assay [1], the Emax stood at 90% and the EC50 was found to be 5300 nM.
Regarding `CC(C)NCC(O)c1ccc(O)c(O)c1` (centres unmarked) [Isoproterenol, reference compound], the “maximale Steigerung der Kontraktionskraft (ISOmax.)” value in assay [1] (x ± SK, N=30) was determined as 2.1 ± 0.1 g.
In the case of `COC(=O)C1=C(C)NC(C)=C(C(=O)OC)C1c1ccccc1[N+](=O)[O-]` [Nifedipin, 2,6-Dimethyl-4-(2-nitrophenyl)-1,4-dihydro-pyridin-3,5-dicarbonsäure-dimethylester, reference compound], the “Blutdruck (Art der Wirkung)” value with narkotisierten Hund is given as “Senkung des Blutdrucks”. In addition, the “Kontraktionsfrequenz (Art der Wirkung)” value in assay [2] is recorded as “negativ chronotrope Wirkung”. The “arterieller Blutdruck (Art der Wirkung)” value in the assay with narkotisierten Katze is recorded as “Senkung des arteriellen Blutdrucks”. Besides, in assay [1], the IC25 is 100 nM, the IC50 amounted to 400 nM and the “Kontraktionskraft (Art der Wirkung)” value is “negativ inotrope Wirkung”.
